Measurements as given in patent publication US12473262B2, “Aryl hydrocarbon receptor activators” (Oregon State University, priority 2019, dated 2025).

Molecular target: aryl hydrocarbon receptor (AhR) (Mus musculus (Mouse), UniProt P30561)
Test: AhR ligand screening: AhRE-luciferase reporter in transfected Hepa1 cells
Assay type: cell-based
Settings: for Fold @ 1 nM: fold change of luciferase expression at 1 nM test compound relative to vehicle (0.1% DMSO); for Fold @ 100 nM: fold change of luciferase expression at 100 nM test compound relative to vehicle (0.1% DMSO); for Fold @ 10 uM: fold change of luciferase expression at 10 uM test compound relative to vehicle (0.1% DMSO); for Fold relative to benchmark @ 100 nM: luciferase expression at 100 nM test compound relative to 100 nM benchmark compound 11-cl-BBQ
Excerpt: The AhR is a ligand-activated transcription factor that dimerizes with ARNT to regulate gene expression, and genes that are regulated by AhR ligands have AhR response elements (AhRE) in their promotor regions.
Briefly, Hepa1 cells were transfected with a reporter construct consisting of AhRE linked to luciferase. The addition of AhR ligands to the transfected cells induces luciferase production that is directly proportional to the amount of AhR activation. We used this reporter system to identify novel compounds with AhR-activating properties. Transfected Hepa1 cells were plated at a density of 1×10^4 cells/well in 100 μL of cell culture media in 96 well plates and grown overnight. […] Following incubation with the compounds, the media was removed, and cells were harvested with lysis buffer. The lysates were transferred to opaque 96 well plates, where they were assayed well-by-well for luciferase activity by injection of luciferase assay substrate with a 2 sec mixing time and 15 sec integration period on a Tropix TR717 microplate luminometer. Data were expressed as fold induction of luciferase relative to vehicle (0.1% DMSO) treated cells.

Sequence of aryl hydrocarbon receptor (AhR) (P30561 10-805): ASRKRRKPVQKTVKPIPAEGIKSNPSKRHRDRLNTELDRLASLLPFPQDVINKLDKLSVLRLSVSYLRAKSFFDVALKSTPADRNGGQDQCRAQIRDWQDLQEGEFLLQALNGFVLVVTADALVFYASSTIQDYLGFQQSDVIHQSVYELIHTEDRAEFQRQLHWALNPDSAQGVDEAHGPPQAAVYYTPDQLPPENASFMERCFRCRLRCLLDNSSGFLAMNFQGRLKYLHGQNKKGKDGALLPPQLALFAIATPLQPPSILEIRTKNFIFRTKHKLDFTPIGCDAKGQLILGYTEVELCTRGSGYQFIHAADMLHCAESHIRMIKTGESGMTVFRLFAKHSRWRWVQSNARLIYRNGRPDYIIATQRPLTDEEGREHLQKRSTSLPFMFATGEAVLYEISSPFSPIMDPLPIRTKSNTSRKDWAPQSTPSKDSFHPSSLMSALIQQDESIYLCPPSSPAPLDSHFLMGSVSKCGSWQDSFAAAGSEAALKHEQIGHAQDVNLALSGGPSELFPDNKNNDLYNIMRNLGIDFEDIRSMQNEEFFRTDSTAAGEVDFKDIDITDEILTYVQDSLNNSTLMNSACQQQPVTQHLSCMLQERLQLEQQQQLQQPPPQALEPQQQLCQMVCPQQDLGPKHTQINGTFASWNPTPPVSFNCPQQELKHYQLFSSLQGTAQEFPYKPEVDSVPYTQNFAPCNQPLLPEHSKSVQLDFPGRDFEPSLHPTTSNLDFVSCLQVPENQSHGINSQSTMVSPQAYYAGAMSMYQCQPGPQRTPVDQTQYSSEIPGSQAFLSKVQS
Sequence of aryl hydrocarbon receptor (AhR) (P53762 whole entry partner): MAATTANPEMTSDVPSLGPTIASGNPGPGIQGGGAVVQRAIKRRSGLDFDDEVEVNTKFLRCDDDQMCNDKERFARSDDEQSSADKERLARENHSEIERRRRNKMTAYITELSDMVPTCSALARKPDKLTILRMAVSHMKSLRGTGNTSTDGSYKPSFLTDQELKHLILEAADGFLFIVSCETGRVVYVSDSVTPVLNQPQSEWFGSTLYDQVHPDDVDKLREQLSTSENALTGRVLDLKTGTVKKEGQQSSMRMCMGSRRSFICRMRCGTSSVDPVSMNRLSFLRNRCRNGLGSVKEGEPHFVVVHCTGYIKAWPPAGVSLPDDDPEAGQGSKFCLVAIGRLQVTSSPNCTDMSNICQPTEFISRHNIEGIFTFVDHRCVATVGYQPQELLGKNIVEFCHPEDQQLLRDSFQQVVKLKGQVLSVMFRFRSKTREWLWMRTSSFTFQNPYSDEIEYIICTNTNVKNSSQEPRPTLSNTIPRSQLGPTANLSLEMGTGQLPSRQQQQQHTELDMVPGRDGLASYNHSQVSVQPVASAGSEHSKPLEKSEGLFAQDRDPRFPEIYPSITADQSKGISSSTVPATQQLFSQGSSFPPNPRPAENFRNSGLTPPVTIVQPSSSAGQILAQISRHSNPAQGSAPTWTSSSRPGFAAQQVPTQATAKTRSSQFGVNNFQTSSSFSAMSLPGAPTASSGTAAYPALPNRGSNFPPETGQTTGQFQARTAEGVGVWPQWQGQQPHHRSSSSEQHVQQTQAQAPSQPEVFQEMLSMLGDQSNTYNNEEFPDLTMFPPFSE

SMILES	Fold @ 1 nM [fold]	Fold @ 100 nM [fold]	Fold @ 10 uM [fold]	Fold relative to benchmark @ 100 nM [fold]
O=C(c1ccc(F)c(F)c1)n1c(-c2ccc(Cl)c3ccccc23)nc2cc(Cl)ccc21 [Compound 869]	1	12	68	0.41
O=C(c1ccccc1)n1c(-c2ccc3ccccc3c2)nc2ccc(F)cc21 [Compound 585]	1	1	34	0.07
c1ccc2c(c1)Cn1c3ccccc3c3ccnc-2c31 [Compound 526]	2.7	10	28	0.71
O=C(c1ccc(F)c(F)c1)n1c(-c2c3ccccc3cc3ccccc23)nc2cc(Cl)ccc21 [Compound 641]	1	1	21	0.11
O=C(c1ccc(F)c(F)c1)n1c(-c2cccc3c2CCCC3)nc2ccc(Cl)cc21 [Compound 780]	1	1	7	0.04
O=C(c1ccc2nc(-c3cccc4ccccc34)n(S(=O)(=O)c3ccc(C(F)(F)F)cc3)c2c1)N1CCOCC1 [Compound 1370]	1	1	4	0.03
O=C(c1cccc2ccccc12)c1c[nH]c2cc(Cl)ccc12 [Compound 433]	1	1	7	0.03
O=C(C1CCCCC1)n1c(-c2cccc3ccccc23)nc2cc(Cl)ccc21 [Compound 866]	1	34	50	1.17
O=C(c1ccccc1)n1c(-c2cccc3ccccc23)nc2cc(F)ccc21 [Compound 583]	1	5	7	0.33
CN1CCN(C(=O)c2ccc3c(c2)nc(-c2cccc4ccccc24)n3S(=O)(=O)c2cccc(F)c2)CC1 [Compound 1392]	1	1	4	0.03
O=C(c1ccc(F)c(F)c1)n1c(-c2cccc3ccccc23)nc2ccc(OC(F)(F)F)cc21 [Compound 700]	1	16	22	0.62
O=C(c1ccc2c(c1)OCCO2)n1c(-c2cccc3ccccc23)nc2cc(Cl)ccc21 [Compound 851]	1	21	29	0.84
COc1ccc(C(=O)n2c(-c3cc4ccccc4s3)nc3ccc(F)cc32)cc1 [Compound 635]	1	2	24	0.22
Cc1ccc(C(=O)c2c[nH]c3ccc(Cl)cc23)cc1 [Compound 882]	1	1	2	0.02
Clc1ccc2c(c1)nc(-c1cccc3ccccc13)n2Cc1ccccc1 [Compound 533, 1-benzyl-5-chloro-2-(naphthalen-1-yl)-1H-benzimidazole]	1	1	13	0.03
O=C(c1ccccc1)n1c(-c2ccc(F)cc2)nc2cc(Cl)ccc21 [Compound 492]	1	1	14	0.03
